In PubChem BioAssay (NCI) one finds TGI and GI50 data, which are given here for 23 compounds.

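Each compound was tested at five concentrations against cells in 96-well plates for 48 hours. Abbreviation: GI50, concentration required for 50% inhibition of growth. TGI: concentration producing complete growth inhibition.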

The first assay relates to HCC-2998 colon. In words: NCI tumour cell line growth inhibition, 48 h.
`COc1cc2c(NCCCCCCO[N+](=O)[O-])ncnc2c(OC)c1OC` registered a TGI of 17.2 µM.
The same measure, in the same setting: with `CN1CCCNCCN(CCc2ccccn2)CCCN(C)CC1` the figure was over 100 µM.
Take `COc1ccc(CNC(=O)COc2ccc(/C=N/Nc3nc4ccccc4s3)cc2)cc1`: the GI50 is 5.37 µM and the TGI is over 100 µM.
In turn, `N#Cc1cnn2ccn(C3OC(COC(=O)c4ccccc4)C(OC(=O)c4ccccc4)C3OC(=O)c3ccccc3)c12` (centres undefined) had a TGI of over 21.5 µM.
Same read-out and setting: with `C[C@]12CCC(=O)C=C1CC[C@@H]1C2CC[C@]2(C)NC(=O)C(C#N)CC12` (some centres undefined) the figure was over 100 µM; with `CN(C)c1ccc2c(c1)oc(=O)c1ccccc12`, 28.8 µM.
Still for that read-out and setting: with `COC(=O)C(CC(=O)c1cc2c(cc1I)OCO2)Cc1cc(OC)c(OC)c(OC)c1I` (centres undefined) the figure was over 100 µM; with `O=C(Nc1ccccc1[N+](=O)[O-])c1ccccc1`, over 100 µM.
Still for that read-out and setting: with `COc1cc2c(cc1O)[C@H](Cc1ccc(Oc3cc(C[C@H]4c5cc(OC)c(OC)cc5CCN4C)ccc3OC)cc1)NCC2` the figure was 18.7 µM.
Take `Fc1ccc(-c2nn(-c3ccccc3)cc2-c2nc3ccccc3o2)cc1`: the GI50 is 7.98 µM and the TGI was over 100 µM.
Compound `CN(C)S(=O)(=O)Nc1ccccn1` gave a TGI of over 100 µM.
`CN(C)CCNC(=O)c1cccc2nc3c(Cl)cccc3nc12` returned a TGI of 43.1 µM.
Turning to `COc1nc2c(cc1S(=O)(=O)c1ccccc1)CCc1c-2cnn1-c1ccccc1Cl`, the GI50 is over 100 µM and the TGI was over 100 µM.

In the next assay the test system is CAKI-1 renal. Briefly: NCI tumour cell line growth inhibition, 48 h.
In turn, `NC1(CCCCCCCCCCC(=O)O)CNCCNCCNCCNC1` came in with a TGI of over 100 µM.
The same measure, in the same setting: with `C1CN2N3CCCC23C1` (centres undefined) the figure was over 100 µM.
`CC[n+]1ccc2c(c1)C(=O)c1nccc3c1c-2nc1ccccc13`: the GI50 is 2.1 µM and the TGI is over 33.3 µM.
Consider `NNC(=O)c1cnn(-c2ccnc3c(C(F)(F)F)cccc23)c1N`, for which the GI50 was over 100 µM and the TGI is over 100 µM.
`CC(=O)OCCc1cccnc1/C=N/O` showed a TGI of over 100 µM.
As to `Cc1c(Cl)cccc1Nc1ncccc1C(=O)O`, the GI50 was 59 µM and the TGI was over 100 µM.
In turn, `CCC1CCC2CCCC(C)N12` (centres undefined) registered a TGI of over 100 µM.
Same read-out and setting: with `CN(C)c1ccc(/C=C2\C[N+](C)(C)C/C(=C\c3ccc(N(C)C)cc3)C2=O)cc1` the figure was over 100 µM.
On the same count and under the same terms, with `O=C1CC[C@H]2CNC(=O)C[C@H]2C1` the figure was over 100 µM; with `C#CC(C)(C)Oc1cc(O)c2c(=O)c3ccccc3n(C)c2c1`, over 100 µM; with `COc1cc2c(NCCCCCCO[N+](=O)[O-])ncnc2c(OC)c1OC`, 62.3 µM.
`CN1CCCNCCN(CCc2ccccn2)CCCN(C)CC1`: the TGI was over 100 µM.
Turning to `COc1ccc(CNC(=O)COc2ccc(/C=N/Nc3nc4ccccc4s3)cc2)cc1`, the GI50 was 1.98 µM and the TGI worked out at 5.21 µM.
For the compound `N#Cc1cnn2ccn(C3OC(COC(=O)c4ccccc4)C(OC(=O)c4ccccc4)C3OC(=O)c3ccccc3)c12` (centres undefined), the TGI was 21.5 µM.
`C[C@]12CCC(=O)C=C1CC[C@@H]1C2CC[C@]2(C)NC(=O)C(C#N)CC12` (some centres undefined) yielded a TGI of over 100 µM.
The same measure, in the same setting: with `CN(C)c1ccc2c(c1)oc(=O)c1ccccc12` the figure was 26.1 µM; with `COC(=O)C(CC(=O)c1cc2c(cc1I)OCO2)Cc1cc(OC)c(OC)c(OC)c1I` (centres undefined), over 100 µM; with `O=C(Nc1ccccc1[N+](=O)[O-])c1ccccc1`, over 100 µM.
The same measure, in the same setting: with `COc1cc2c(cc1O)[C@H](Cc1ccc(Oc3cc(C[C@H]4c5cc(OC)c(OC)cc5CCN4C)ccc3OC)cc1)NCC2` the figure was 19.8 µM.
Turning to `Fc1ccc(-c2nn(-c3ccccc3)cc2-c2nc3ccccc3o2)cc1`, the GI50 was 3.13 µM and the TGI is over 100 µM.
`CN(C)S(=O)(=O)Nc1ccccn1`: the TGI is over 100 µM.
Turning to `CN(C)CCNC(=O)c1cccc2nc3c(Cl)cccc3nc12`, the TGI is over 70.8 µM.
Regarding `COc1nc2c(cc1S(=O)(=O)c1ccccc1)CCc1c-2cnn1-c1ccccc1Cl`, the GI50 is 5.2 µM and the TGI was over 100 µM.

For the next assay, the system named is HOP-62 NSCLC. Briefly: NCI tumour cell line growth inhibition, 48 h.
The compound `NC1(CCCCCCCCCCC(=O)O)CNCCNCCNCCNC1` displayed a TGI of 91.6 µM.
In the case of `C1CN2N3CCCC23C1` (centres undefined), the TGI was over 100 µM.
Turning to `CC[n+]1ccc2c(c1)C(=O)c1nccc3c1c-2nc1ccccc13`, the GI50 was 0.0618 µM and the TGI was determined as 1.19 µM.
On the same counts, the results for `NNC(=O)c1cnn(-c2ccnc3c(C(F)(F)F)cccc23)c1N` are over 100 µM and over 100 µM.
On to `CC(=O)OCCc1cccnc1/C=N/O`, for which the TGI was over 100 µM.
`Cc1c(Cl)cccc1Nc1ncccc1C(=O)O`: the GI50 was over 100 µM and the TGI was over 100 µM.
In turn, `CCC1CCC2CCCC(C)N12` (centres undefined) showed a TGI of over 100 µM.
As for `CN(C)c1ccc(/C=C2\C[N+](C)(C)C/C(=C\c3ccc(N(C)C)cc3)C2=O)cc1`, the TGI was over 96.7 µM.
The same measure, in the same setting: with `O=C1CC[C@H]2CNC(=O)C[C@H]2C1` the figure was over 100 µM.
For `C#CC(C)(C)Oc1cc(O)c2c(=O)c3ccccc3n(C)c2c1`, the TGI was over 100 µM.
For `COc1cc2c(NCCCCCCO[N+](=O)[O-])ncnc2c(OC)c1OC`, the TGI worked out at 66.7 µM.
In turn, `CN1CCCNCCN(CCc2ccccn2)CCCN(C)CC1` gave a TGI of over 100 µM.
As to `COc1ccc(CNC(=O)COc2ccc(/C=N/Nc3nc4ccccc4s3)cc2)cc1`, the GI50 is 2.22 µM and the TGI was found to be 11.6 µM.
Compound `N#Cc1cnn2ccn(C3OC(COC(=O)c4ccccc4)C(OC(=O)c4ccccc4)C3OC(=O)c3ccccc3)c12` (centres undefined) registered a TGI of over 21.5 µM.
The same measure, in the same setting: with `C[C@]12CCC(=O)C=C1CC[C@@H]1C2CC[C@]2(C)NC(=O)C(C#N)CC12` (some centres undefined) the figure was over 100 µM; with `CN(C)c1ccc2c(c1)oc(=O)c1ccccc12`, 65.6 µM.
On the same count and under the same terms, with `COC(=O)C(CC(=O)c1cc2c(cc1I)OCO2)Cc1cc(OC)c(OC)c(OC)c1I` (centres undefined) the figure was over 100 µM.
Compound `O=C(Nc1ccccc1[N+](=O)[O-])c1ccccc1` returned a TGI of over 100 µM.
As to `Fc1ccc(-c2nn(-c3ccccc3)cc2-c2nc3ccccc3o2)cc1`, the GI50 was 4.95 µM and the TGI is 33.4 µM.
